Assay results taken from publication PMC12709424, “Markovian state models uncover casein kinase 1 dynamics that govern circadian period” (Biophysical Journal, 2025).

Legend:
CK1 [1] = experiment: 32P-ATP time course kinase assay, PER3 FASP-like peptides; assay type: biochemical, human; settings: 32P-ATP time course, 200 μM peptide, 200 nM CK1 (unprimed), 750 μM ATP, 30°C, pH 7.5; four independent assays; Fig. S15E, F
Experimental: (§1) PER FASP region peptides were synthesized and purified to 95% or higher (SABio). Two independent reaction mixtures of 50 μL containing 200 μM of the FASP or in reaction buffer (25 mM Tris (pH 7.5), 7.5 mM MgCl2, 1 mM DTT, and 0.1 mg/mL BSA) were preincubated for 5 min with or without 20 nM CK1 (for primed FASP) or 200 nM CK1 (for unprimed FASP) and the reaction was started by addition of 750 μM of UltraPure ATP (Promega) containing 1–2 μCi of ɣ-^32p ATP (PerkinElmer). After incubation of the reaction mix at 30°C, an 8-μL aliquot of the reaction mix was transferred to P81 phosphocellulose paper (Reaction Biology Corp) at the indicated timepoints. […] The air-dried P81 paper was counted for Pi incorporation using a scintillation counter (PerkinElmer) by Cherenkov counting. […]
(§2) To map binding sites on the surface of CK1, we employed FTMap, a fast computational approach that uses small organic probes to identify consensus sites (or pockets) that are likely to bind drug -like molecules. We submitted a series of conformations representative of the most populated MSM states to the FTMap server (https://ftmap.bu.edu/) and analyzed the results with FTProd. […] Tables S7 and S8 describe the consensus sites (CS) detected for WT and tau conformations, respectively. When a site is detected (colorful cells), it contains a score based on (1 picture or pasted object on this page, not shown here)

CK1 D132A = experiment: 32P-ATP time course kinase assay, CK1 D132A compared with WT; assay type: biochemical, human; settings: 200 μM peptide, 30°C, pH 7.5, four independent assays
Experimental: as §1
as §2, with “(1 picture or pasted object on this page, not shown here)” left out

[2] = biological target: Human CK1δ catalytic domain (CK1, residues 1–317), wild type (human) (UniProt P48730)
CK1 [3] = settings: cited from earlier work
Excerpt: Here, we further tested our model by introducing a lysine at the −3 position and a glutamate at the −1 position of PER3 FASP-like peptides (A610K/L612E) to mimic the PER2 FASP priming region and rescue priming activity. These mutant peptides were used in a ^32P-ATP time course kinase assay ...

Sequence of UniProt P48730 (P48730 other isoform, or with tags, fused parts or gaps mutant): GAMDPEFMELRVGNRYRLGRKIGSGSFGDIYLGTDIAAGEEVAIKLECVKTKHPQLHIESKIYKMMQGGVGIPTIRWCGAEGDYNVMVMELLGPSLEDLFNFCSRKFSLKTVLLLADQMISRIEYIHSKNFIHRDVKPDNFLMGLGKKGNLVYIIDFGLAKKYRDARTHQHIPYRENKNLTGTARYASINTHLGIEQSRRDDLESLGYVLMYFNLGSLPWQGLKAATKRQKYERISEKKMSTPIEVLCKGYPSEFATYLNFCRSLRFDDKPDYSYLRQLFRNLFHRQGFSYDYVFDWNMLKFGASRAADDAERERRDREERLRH

RKKKPSTDIEGGAAR TLSTKAESVAAGIAQ [A610K/L612E (priming only), PER3 KAE peptide with serine residues downstream of the priming site mutated to alanine]
CK1 activity in presence of −3K and −1E (in words) (CK1 [1]): increase in CK1 activity

RKKKPSTDIEGGAART LSTKAESVASGISQ [A610K/L612E, PER3 FASP-like peptide with −3K and −1E (A610K/L612E)]
CK1 activity in presence of −3K and −1E (in words) (CK1 [1]): increase in CK1 activity

RKKKTEVSAHLSSLTL PGKAEpSVVSLTSQ [primed FASP peptide, synthetic mouse PER2 FASP peptide, pS659 primed]
activity of CK1 D132A compared with CK1 WT on primed FASP (in words) (CK1 D132A; 20 nM CK1, 750 μM ATP, Fig. S15C): more modest effect

RKKKTEVSAHLSSLTLP GKAESVVSLTSQ [unprimed FASP peptide, synthetic mouse PER2 FASP peptide, unprimed]
activity of CK1 D132A compared with CK1 WT on unprimed FASP (in words) (CK1 D132A; 200 nM CK1, 750 μM ATP, Fig. S15B): dramatic loss in activity

human PER2 FASP peptide, alanine at position −1 (E661) in the “priming only” (S665A) background
fold change of the apparent Michaelis-Menten constant (KMapp) against the WT “priming only” substrate, ADP-Glo substrate titration [2]: 10 fold

human PER2 FASP peptide, alanine at position −3 (K659) in the “priming only” (S665A) background
fold change of the apparent Michaelis-Menten constant (KMapp) against the WT “priming only” substrate, ADP-Glo substrate titration [2]: 10 fold

human PER2 FASP peptide, “priming only” (S665A)
apparent Michaelis-Menten constant (KMapp) of CK1 priming activity, ADP-Glo substrate titration (200 nM CK1, 100 μM ATP, room temperature, 1 h) [2]: 210 µM

B1: PER3: PER homolog within the circadian system (protein, UniProt P56645 1-1201, looked up)
Period circadian protein …: MPRGEAPGPGRRGAKDEALGEESGERWSPEFHLQRKLADSSHSEQQDRNRVSEELIMVVQEMKKYFPSERRNKPSTLDALNYALRCVHSVQANSEFFQILSQNGAPQADVSMYSLEELATIASEHTSKNTDTFVAVFSFLSGRLVHISEQAALILNRKKDVLASSHFVDLLAPQDMRVFYAHTARAQLPFWNNWTQRAARYECAPVKPFFCRIRGGEDRKQEKCHSPFRIIPYLIHVHHPAQPELESEPCCLTVVEKIHSGYEAPRIPVNKRIFTTTHTPGCVFLEVDEKAVPLLGYLPQDLIGTSILSYLHPEDRSLMVAIHQKVLKYAGHPPFEHSPIRFCTQNGDYIILDSSWSSFVNPWSRKISFIIGRHKVRTSPLNEDVFATKIKKMNDNDKDITELQEQIYKLLLQPVHVSVSSGYGSLGSSGSQEQLVSIASSSEASGHRVEETKAEQMTLQQVYASVNKIKNLGQQLYIESMTKSSFKPVTGTRTEPNGGGECKTFTSFHQTLKNNSVYTEPCEDLRNDEHSPSYQQINCIDSVIRYLKSYNIPALKRKCISCTNTTSSSSEEDKQNHKADDVQALQAGLQIPAIPKSEMPTNGRSIDTGGGAPQILSTAMLSLGSGISQCGYSSTIVHVPPPETARDATLFCEPWTLNMQPAPLTSEEFKHVGLTAAVLSAHTQKEEQNYVDKFREKILSSPYSSYLQQESRSKAKYSYFQGDSTSKQTRSAGCRKGKHKRKKLPEPPDSSSSNTGSGPRRGAHQNAQPCCPSAASSPHTSSPTFPPAAMVPSQAPYLVPAFPLPAATSPGREYAAPGTAPEGLHGLPLSEGLQPYPAFPFPYLDTFMTVFLPDPPVCPLLSPSFLPCPFLGATASSAISPSMSSAMSPTLDPPPSVTSQRREEEKWEAQSEGHPFITSRSSSPLQLNLLQEEMPRPSESPDQMRRNTCPQTEYCVTGNNGSESSPATTGALSTGSPPRENPSHPTASALSTGSPPMKNPSHPTASALSTGSPPMKNPSHPTASTLSMGLPPSRTPSHPTATVLSTGSPPSESPSRTGSAASGSSDSSIYLTSSVYSSKISQNGQQSQDVQKKETFPNVAEEPIWRMIRQTPERILMTYQVPERVKEVVLKEDLEKLESMRQQQPQFSHGQKEELAKVYNWIQSQTVTQEIDIQACVTCENEDSADGAATSCGQVLVEDSC
CK1 substrate status (in words) (CK1 [3]): does not appear to be a substrate of the kinase
